The values below come from ChEMBL document CHEMBL5465560, “Selectivity Literature for EUbOPEN Chemogenomic Library” (2024).

In assay [1] the target is RAC-gamma serine/threonine-protein kinase (Homo sapiens, UniProt Q9Y243). As to the kind of experiment: Selectivity interaction (ProQinase) EUB0000171b AKT3.
The target in assay [2] is Serine/threonine-protein kinase PAK 1 (Homo sapiens) (UniProt Q13153). As to the kind of experiment: Selectivity interaction (KinomeScan (DiscoverX)) EUB0000092b PAK1. To be noted: at 10 µM.
For assay [3], the target named is T1, Serine/threonine-protein kinase 3 (Homo sapiens) (UniProt Q13188).
T1 sequence (whole entry): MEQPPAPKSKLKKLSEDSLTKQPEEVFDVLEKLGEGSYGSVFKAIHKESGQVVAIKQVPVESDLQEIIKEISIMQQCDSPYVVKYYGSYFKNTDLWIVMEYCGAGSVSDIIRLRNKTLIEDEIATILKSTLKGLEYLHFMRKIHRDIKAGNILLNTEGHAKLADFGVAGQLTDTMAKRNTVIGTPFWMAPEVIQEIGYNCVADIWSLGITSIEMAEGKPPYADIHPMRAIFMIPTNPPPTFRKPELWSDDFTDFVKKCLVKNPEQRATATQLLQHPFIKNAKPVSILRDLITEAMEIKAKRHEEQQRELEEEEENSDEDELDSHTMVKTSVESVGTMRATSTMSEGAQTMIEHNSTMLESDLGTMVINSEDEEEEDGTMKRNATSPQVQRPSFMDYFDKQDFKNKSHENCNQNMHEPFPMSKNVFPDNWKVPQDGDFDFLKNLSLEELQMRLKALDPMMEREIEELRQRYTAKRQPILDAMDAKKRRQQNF
As to the kind of experiment: Selectivity interaction (KinomeScan (DiscoverX)) EUB0000092b STK3. As to conditions: at 10 µM.

Assay [4] deals with RAF proto-oncogene serine/threonine-protein kinase (Homo sapiens) (UniProt P04049). As to the kind of experiment: Selectivity interaction (KinomeScan (DiscoverX)) EUB0000092b RAF1. To be noted: at 10 µM.
Assay [5] addresses T2, Histone-lysine N-methyltransferase SETD7 (Homo sapiens) (UniProt Q8WTS6).
T2 sequence (whole entry): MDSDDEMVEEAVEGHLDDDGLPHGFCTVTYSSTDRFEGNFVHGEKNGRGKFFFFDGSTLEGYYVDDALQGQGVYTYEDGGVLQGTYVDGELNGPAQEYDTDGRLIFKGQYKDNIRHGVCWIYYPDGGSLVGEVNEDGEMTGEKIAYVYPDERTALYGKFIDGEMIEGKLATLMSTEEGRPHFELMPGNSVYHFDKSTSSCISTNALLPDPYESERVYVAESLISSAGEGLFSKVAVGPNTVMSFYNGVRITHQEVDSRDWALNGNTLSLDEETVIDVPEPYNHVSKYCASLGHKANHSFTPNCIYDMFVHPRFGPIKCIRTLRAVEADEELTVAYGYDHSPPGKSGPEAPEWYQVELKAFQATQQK
As to the kind of experiment: Selectivity interaction (Transferase panel (protein, RNA, and DNA methyltransferases. and EP300 (acetyltransferase))) EUB0000270b SETD7.

Assay [6] addresses T3, Dual specificity tyrosine-phosphorylation-regulated kinase 4 (Homo sapiens) (UniProt Q9NR20).
T3 sequence (whole entry): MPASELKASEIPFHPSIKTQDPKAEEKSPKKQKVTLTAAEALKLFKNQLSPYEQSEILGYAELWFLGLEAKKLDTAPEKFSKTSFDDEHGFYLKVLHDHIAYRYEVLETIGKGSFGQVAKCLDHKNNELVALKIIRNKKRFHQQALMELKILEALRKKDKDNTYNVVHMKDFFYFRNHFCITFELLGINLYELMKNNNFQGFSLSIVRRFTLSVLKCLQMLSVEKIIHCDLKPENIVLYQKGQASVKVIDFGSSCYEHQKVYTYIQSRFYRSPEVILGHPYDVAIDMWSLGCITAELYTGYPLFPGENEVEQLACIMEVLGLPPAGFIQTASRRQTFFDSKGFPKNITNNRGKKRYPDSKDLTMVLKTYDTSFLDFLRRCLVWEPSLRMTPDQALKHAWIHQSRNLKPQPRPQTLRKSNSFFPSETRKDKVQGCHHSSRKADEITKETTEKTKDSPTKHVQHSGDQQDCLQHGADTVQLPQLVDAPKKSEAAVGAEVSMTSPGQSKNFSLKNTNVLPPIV
As to the kind of experiment: Selectivity interaction (Kinase panel (Z-LYTE Assay)) EUB0001632a DYRK4. To be noted: at 10 µM.

Assay [7] concerns the target T4, Tyrosine-protein kinase receptor TYRO3 (Homo sapiens) (UniProt Q06418).
T4 sequence (whole entry): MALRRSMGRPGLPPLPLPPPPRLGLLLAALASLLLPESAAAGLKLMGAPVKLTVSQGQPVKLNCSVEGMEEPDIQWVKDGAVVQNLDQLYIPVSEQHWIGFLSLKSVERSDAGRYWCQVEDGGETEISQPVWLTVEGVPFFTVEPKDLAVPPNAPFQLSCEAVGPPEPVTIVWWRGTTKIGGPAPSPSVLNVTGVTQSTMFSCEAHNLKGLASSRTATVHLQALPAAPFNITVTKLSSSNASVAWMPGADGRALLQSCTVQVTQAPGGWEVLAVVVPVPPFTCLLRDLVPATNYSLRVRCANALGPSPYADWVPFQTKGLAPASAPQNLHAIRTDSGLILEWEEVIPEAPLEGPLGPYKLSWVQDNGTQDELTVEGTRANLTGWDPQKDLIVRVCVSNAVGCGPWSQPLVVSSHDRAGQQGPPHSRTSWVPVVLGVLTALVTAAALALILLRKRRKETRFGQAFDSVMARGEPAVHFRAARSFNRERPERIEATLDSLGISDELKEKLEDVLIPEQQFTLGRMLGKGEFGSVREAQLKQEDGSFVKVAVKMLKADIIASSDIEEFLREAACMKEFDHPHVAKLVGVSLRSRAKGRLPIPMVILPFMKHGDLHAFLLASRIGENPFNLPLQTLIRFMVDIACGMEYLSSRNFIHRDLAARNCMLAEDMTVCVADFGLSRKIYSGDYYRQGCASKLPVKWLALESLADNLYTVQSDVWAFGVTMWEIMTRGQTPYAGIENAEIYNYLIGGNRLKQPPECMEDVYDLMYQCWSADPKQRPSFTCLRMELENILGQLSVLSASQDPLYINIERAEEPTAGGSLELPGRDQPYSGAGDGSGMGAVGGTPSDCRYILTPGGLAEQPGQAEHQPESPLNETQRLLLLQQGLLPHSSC
As to the kind of experiment: Selectivity interaction (Kinase panel (Invitrogen)) EUB0000639a TYRO3. To be noted: at 200 nM.

The target in assay [8] is Platelet-derived growth factor receptor alpha (Homo sapiens, UniProt P16234). The assay can be described thus: Selectivity interaction (Kinase panel (Invitrogen)) EUB0000639a PDGFRA. To be noted: at 200 nM.
Chain of Platelet-derived growth factor receptor alpha (P16234 whole entry): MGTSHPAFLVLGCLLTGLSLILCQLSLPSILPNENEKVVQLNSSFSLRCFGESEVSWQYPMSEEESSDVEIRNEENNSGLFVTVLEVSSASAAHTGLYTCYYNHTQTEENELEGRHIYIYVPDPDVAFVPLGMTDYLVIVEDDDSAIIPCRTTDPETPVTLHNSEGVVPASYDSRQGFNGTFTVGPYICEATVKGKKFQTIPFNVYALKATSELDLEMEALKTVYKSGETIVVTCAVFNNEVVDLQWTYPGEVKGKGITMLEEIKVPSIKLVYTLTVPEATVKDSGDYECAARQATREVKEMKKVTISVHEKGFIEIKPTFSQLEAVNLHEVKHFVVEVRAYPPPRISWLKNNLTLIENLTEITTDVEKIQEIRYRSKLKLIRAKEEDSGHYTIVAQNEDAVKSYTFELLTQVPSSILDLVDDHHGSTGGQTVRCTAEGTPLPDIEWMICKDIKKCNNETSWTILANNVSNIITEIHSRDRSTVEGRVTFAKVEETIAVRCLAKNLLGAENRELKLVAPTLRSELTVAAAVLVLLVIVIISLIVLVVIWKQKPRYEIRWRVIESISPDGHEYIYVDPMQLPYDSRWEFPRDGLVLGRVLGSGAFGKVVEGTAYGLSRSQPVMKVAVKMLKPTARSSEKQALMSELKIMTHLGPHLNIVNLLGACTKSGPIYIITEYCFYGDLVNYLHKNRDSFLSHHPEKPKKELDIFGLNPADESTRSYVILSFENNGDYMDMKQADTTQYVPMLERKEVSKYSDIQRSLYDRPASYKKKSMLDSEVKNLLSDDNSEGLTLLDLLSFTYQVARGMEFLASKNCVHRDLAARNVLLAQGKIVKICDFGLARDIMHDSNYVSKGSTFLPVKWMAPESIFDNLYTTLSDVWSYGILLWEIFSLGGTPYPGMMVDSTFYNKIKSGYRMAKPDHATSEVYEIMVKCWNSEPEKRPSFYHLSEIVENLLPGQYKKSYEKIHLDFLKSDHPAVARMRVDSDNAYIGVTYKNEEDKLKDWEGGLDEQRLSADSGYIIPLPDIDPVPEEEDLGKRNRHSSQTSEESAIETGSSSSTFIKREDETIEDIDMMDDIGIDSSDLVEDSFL

Chain of RAC-gamma serine/threonine-protein kinase (Q9Y243 whole entry): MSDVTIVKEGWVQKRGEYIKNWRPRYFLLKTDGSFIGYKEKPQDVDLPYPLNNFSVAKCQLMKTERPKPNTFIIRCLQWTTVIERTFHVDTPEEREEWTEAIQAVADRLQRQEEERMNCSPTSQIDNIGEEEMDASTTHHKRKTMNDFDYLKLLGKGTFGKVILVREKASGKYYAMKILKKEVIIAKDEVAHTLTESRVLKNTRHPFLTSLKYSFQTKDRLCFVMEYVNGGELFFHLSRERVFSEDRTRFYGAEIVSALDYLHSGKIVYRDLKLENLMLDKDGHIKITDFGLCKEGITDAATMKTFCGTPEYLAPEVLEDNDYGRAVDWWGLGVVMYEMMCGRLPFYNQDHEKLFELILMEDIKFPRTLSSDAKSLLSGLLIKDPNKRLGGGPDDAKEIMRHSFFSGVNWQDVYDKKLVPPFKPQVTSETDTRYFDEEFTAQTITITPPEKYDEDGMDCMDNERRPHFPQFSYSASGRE
Chain of RAF proto-oncogene serine/threonine-protein kinase (Homo sapiens) (P04049 whole entry): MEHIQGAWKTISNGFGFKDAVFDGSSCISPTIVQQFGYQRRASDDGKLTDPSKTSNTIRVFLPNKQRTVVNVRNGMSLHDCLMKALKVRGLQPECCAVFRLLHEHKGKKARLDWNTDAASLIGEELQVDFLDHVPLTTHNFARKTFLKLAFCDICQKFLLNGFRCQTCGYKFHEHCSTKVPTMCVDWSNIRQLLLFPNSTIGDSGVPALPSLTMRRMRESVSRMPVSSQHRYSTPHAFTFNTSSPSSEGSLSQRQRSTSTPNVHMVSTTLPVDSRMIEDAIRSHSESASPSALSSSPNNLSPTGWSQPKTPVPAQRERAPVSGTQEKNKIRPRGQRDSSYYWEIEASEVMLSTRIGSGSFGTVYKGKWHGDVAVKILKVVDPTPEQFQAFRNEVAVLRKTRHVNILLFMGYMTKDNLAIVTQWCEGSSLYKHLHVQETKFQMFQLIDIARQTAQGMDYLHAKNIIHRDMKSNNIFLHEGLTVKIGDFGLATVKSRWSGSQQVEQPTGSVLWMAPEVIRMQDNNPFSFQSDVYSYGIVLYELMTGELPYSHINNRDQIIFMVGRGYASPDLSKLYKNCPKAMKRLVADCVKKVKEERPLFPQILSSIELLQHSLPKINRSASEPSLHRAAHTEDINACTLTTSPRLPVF
Chain of Serine/threonine-protein kinase PAK 1 (Homo sapiens) (Q13153 whole entry): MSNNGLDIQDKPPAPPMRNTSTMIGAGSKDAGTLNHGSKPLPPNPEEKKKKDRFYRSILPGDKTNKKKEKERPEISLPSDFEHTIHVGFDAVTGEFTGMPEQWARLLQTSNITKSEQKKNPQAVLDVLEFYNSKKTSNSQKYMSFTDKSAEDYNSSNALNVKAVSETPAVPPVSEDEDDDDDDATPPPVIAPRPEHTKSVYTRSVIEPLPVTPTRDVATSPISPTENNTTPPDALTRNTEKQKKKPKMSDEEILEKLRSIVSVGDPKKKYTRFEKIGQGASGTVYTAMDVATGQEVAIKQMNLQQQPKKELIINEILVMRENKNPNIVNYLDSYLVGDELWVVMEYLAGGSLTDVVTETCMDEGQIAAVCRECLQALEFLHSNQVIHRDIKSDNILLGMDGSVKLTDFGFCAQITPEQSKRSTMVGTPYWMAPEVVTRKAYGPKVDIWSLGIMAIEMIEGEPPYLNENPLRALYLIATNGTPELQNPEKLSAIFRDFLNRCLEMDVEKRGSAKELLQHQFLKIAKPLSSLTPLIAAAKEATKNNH

Consider `C=CC(=O)Nc1cccc(C(=O)Nc2ccc(Nc3cc(-c4[nH]c(SC)nc4C)ccn3)cc2)c1`, for which the results for the % of control in assay [1] (at 1 µM) and in assay [1] (at 5 µM) were 95% and 90%, respectively.
As to `CCC(=O)N1CCN(c2ccc(-n3c(=O)ccc4cnc5ccc(-c6cnc7ccccc7c6)cc5c43)cc2C(F)(F)F)CC1`, the % of control in assay [2] was determined as 73%; in assay [3], 24%; in assay [4], 48%.
Consider `Cc1cc(CN)cc(C)c1-c1ncn(C)c1-c1cncn1C`, for which the % activity is above 90% in assay [5] (at 1 µM) and above 80% in assay [5] (at 10 µM).
For `Cn1cc(-n2cnc3c(NCc4nc5cc(Cl)c(Cl)cc5[nH]4)nc(N4CCOCC4)nc32)cn1`, the % of control in assay [6] was determined as 0.0605%.
Regarding `CC[C@@H]1[C@H](F)C(=O)N[C@@H]1COc1nccc2cc(C(N)=O)c(OC)cc12` [ZIMLOVISERTIB], the % of inhibition is 5.87% in assay [7] and 9.99% in assay [8].
